Experiment [1] is described as follows: NIH-3T3 fibroblast cytotoxicity, dose response, cytotoxicity control, cell-based, fluorescence, Alamar Blue, secondary assay (AID 2327).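 Also: NIH-3T3 mouse fibroblasts cultured with fluconazole at 8 µg/mL.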 It counts as functional.
Experiment [2] in a line: fluconazole-exposed Candida albicans growth modulators – fluorescence, retest, confirmation (AID 2467). The format is functional, cell-based.
Experiment [3] deals with T1, Rac GTPase-activating protein 1 (Homo sapiens, UniProt Q9H0H5).
T1 sequence (Q9H0H5 whole entry): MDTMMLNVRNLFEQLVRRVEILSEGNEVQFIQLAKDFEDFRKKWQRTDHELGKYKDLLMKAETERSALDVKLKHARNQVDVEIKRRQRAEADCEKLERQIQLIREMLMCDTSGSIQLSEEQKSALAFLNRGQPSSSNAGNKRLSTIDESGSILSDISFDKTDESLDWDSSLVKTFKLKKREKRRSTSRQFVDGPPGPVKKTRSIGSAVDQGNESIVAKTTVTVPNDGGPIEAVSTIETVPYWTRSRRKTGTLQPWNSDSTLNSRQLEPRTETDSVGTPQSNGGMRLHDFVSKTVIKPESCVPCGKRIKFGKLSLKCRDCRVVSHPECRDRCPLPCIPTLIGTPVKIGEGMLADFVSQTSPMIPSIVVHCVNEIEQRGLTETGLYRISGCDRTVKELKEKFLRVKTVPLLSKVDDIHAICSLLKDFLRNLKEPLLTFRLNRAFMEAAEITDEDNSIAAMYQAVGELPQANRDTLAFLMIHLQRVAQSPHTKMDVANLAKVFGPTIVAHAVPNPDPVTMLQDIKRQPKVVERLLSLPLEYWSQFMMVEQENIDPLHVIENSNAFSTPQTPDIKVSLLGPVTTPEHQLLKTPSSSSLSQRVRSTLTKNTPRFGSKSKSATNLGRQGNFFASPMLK
Put plainly: blockers of MgcRacGAP-driven Rac1 GTP hydrolysis – biochemical, ADP Hunter fluorescence, primary and confirmatory, confirmation (AID 624330). It counts as functional.

The subject of a further experiment is H4. Briefly: Luminescence Cell-Based Dose Response HTS to Identify Activators of 5'UTR Stem-Loop Driven Prion Protein mRNA Translation in H4 Neuroglioblastoma Cells. [Related pubchem assays: 1829 (Project Summary), 1814 (Primary HTS)]. The format is functional. The conditions noted are these: Homo sapiens.
Experiment [4] in a line: Luminescence Cell-Based Dose Response HTS to Identify Activators of Luciferase Translation or Activity in H4 […] Cells. [Related pubchem assays: 1829 (Project Summary), 1814 (Primary HTS)]. It counts as functional.
A further experiment deals with Paired box protein Pax-8 (Homo sapiens, UniProt Q06710). Put plainly: PAX8 transcriptional activity inhibition in RMG-I – RMG-I cells, luciferase, cherry-pick, dose response (AID 687027).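 Also: luciferase reporter driven by Pax8 target thyroperoxidase promoter measured by SteadyGlo luminescence.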 The format is functional, cell-based.
Sequence of Paired box protein Pax-8 (Q06710 whole entry): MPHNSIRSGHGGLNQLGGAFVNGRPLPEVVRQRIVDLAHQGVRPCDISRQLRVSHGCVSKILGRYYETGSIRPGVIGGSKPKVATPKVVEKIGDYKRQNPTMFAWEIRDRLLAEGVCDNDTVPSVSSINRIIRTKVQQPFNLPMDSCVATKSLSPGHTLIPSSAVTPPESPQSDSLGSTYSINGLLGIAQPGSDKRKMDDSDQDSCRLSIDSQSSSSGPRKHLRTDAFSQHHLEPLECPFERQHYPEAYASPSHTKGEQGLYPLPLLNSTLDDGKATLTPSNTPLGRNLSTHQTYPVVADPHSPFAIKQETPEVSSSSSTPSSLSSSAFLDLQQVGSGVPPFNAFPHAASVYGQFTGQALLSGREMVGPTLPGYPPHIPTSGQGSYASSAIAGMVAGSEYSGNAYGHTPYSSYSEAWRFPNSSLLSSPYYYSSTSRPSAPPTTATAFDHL
The next experiment has as its target T2, Streptokinase A (Streptococcus pyogenes serotype M1, UniProt P10520).
T2 sequence (P10520 whole entry): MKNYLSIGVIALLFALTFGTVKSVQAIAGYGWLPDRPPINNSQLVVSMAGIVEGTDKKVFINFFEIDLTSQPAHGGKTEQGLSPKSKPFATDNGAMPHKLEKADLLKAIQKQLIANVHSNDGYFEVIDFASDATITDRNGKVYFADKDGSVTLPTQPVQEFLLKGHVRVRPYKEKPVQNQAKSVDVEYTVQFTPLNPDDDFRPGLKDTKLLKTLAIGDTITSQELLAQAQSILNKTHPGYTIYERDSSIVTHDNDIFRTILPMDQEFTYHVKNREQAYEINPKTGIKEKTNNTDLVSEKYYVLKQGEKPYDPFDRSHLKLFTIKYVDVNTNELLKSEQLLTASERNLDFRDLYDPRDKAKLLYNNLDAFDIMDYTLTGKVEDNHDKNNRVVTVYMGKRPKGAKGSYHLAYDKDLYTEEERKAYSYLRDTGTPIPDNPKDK
Put plainly: viability-normalized secreted streptokinase activity reduction – plasminogen activation absorbance, OD405, dose response (AID 1914).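 Also: secreted streptokinase activity via plasminogen activation per viability signal from cell pellet.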 The format is functional, Streptococcus pyogenes M1 GAS.

A further experiment relates to Streptococcus. Briefly: GAS UMAA2166 growth inhibition – luminescence, BacTiterGlo, counter-screen for streptokinase expression inhibitor project, dose response (AID 1915).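 Also: potency for reduction of bacterial viability or growth.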 The format is functional, organism-based. A general note: A counterscreen serves to expose hits that act by an unwanted route or on another target.
The subject of another experiment is INS1. Briefly: INS-1E survival protection against cytokine death – cell-based, luminescence, retest, dose response (AID 449756).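 Also: cell death triggered by IL-1 beta plus TNF-alpha plus IFN-gamma mixture; protective hits raise ATP signal compared with cytokine alone wells.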 It counts as functional. The note with it: Rattus norvegicus.
The test system of experiment [5] is Streptococcus sp. 'group A'. Briefly: Streptococcus pyogenes SK(-)GAS viability under kanamycin – luminescence, BacTiterGlo, confirmation, counter-screen for streptokinase expression inhibitor project, dose response (AID 1900). It counts as functional, organism-based.
Another experiment has as its target Cytochrome P450 3A4 (Homo sapiens, UniProt P08684).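 Also: CYP3A4 tested as one member of a cytochrome P450 panel screen.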
A short description of experiment [6]: Luminescence Cell-Based Dose Confirmation HTS to Identify Activators of 5'UTR Stem-Loop Driven Alpha-Synuclein mRNA Translation in H4 Neuroglioblastoma Cells. [Related pubchem assays: 1829 (Project Summary), 1814 (Primary HTS)]. The format is functional.
Another experiment deals with Cytochrome P450 2D6 (Homo sapiens, UniProt P10635).
Sequence of Cytochrome P450 2D6 (P10635 whole entry): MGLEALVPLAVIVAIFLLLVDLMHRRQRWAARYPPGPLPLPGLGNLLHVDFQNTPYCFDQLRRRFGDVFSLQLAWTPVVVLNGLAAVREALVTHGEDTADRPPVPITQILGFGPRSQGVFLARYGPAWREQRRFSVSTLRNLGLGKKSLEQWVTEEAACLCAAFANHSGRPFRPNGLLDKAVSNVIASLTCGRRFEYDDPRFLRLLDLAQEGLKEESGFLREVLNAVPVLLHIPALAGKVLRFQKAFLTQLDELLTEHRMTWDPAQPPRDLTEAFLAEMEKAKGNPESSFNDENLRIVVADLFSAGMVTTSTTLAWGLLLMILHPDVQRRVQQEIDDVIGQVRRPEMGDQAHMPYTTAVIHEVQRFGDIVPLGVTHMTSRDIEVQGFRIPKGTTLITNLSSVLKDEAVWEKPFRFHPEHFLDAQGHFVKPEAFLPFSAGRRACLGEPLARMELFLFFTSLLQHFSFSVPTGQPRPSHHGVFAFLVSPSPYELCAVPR
The target of the next experiment is T3, Cytochrome P450 1A2 (Homo sapiens, UniProt P05177).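 Also: PubChem cytochrome P450 panel assay, CYP1A2 panel member.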
T3 sequence (P05177 whole entry): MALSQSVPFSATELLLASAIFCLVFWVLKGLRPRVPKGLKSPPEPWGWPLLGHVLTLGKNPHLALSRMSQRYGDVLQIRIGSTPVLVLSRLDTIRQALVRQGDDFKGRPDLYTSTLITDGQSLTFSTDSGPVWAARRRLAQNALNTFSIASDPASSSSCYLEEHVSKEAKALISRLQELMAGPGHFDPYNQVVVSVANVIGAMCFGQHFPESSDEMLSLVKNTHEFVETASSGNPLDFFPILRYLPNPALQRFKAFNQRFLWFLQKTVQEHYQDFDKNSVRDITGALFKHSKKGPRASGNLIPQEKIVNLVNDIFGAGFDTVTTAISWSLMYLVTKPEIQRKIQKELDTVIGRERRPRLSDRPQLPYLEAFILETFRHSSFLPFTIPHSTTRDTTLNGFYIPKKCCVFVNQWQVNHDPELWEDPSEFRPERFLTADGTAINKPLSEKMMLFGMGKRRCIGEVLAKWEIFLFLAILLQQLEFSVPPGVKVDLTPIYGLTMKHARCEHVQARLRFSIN

EC50, IC50 and AC50 data for 33 compounds are collected here from ChEMBL document CHEMBL1201862, “PubChem BioAssay data set” (2004).

Molecules are shown by their SMILES. Active and inactive are the calls of the source. Rule as the data show it, for most assays here: actives have a measured EC50 and inactives only a lower limit.

Sequence of Cytochrome P450 3A4 (P08684 whole entry): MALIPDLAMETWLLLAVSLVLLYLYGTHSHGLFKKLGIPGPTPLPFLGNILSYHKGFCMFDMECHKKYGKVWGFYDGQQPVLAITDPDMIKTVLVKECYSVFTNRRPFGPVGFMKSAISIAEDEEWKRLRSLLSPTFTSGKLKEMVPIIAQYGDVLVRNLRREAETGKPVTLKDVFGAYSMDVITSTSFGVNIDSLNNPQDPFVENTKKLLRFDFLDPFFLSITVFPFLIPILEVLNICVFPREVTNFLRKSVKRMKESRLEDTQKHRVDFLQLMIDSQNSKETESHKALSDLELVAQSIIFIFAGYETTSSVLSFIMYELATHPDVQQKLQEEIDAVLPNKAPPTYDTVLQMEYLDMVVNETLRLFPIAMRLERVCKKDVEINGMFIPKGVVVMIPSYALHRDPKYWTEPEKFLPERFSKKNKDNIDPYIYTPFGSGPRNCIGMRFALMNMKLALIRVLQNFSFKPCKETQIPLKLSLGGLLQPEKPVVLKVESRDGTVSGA

Broadly, the EC50 is the concentration that produces a half-maximal response. On to `O=C(COc1ccc2c(c1)CCC2)NCc1cccc(Cl)c1`, for which the figures for the EC50 in [1] and in [2] were > 160 µM (inconclusive) and > 38 µM (not active), respectively.
Broadly, the IC50 is the concentration that gives 50% inhibition. Turning to `COCCCn1c(=S)[nH]c2sc3c(c2c1=O)CCCC3`, in experiment [3], the IC50 was 32.9 µM (active).
`CC(=O)N1CCC(=NNc2nc3ccccc3s2)CC1`: the EC50 in experiment [1] is > 160 µM (inactive); in experiment [2], > 38 µM (not active).
As for `CCc1nnc(NC(=O)CSc2nc3c(cc2C#N)CCC3)s1`, the results for the EC50 (in the experiment on H4; in experiment [4]) were > 120 µM (not active) and 0.131 µM (active), respectively.
As usually defined, the AC50 is the concentration at which the activity in the assay is half-maximal. Take `Oc1ccc(C[C@H]2CNC(=S)N2CC2CCCN2C[C@H](Cc2ccc(O)cc2)N2C[C@H](Cc3ccc(O)cc3)N(CC3CCCCCC3)C2=S)cc1` (stereo partly drawn): on Paired box protein Pax-8, the AC50 was 5.35 µM (active).
Regarding `Oc1ccc(Cc2ccccc2)c2cccnc12`, the AC50 on Paired box protein Pax-8 is 4.48 µM (active).
For `FC(F)(F)c1cccc(-c2nc3nc(Cl)c(Cl)nc3[nH]2)c1`, the EC50 was > 150 µM (not active) at Streptokinase A, 94.8 µM (active) in the experiment with Streptococcus and 7.96 µM (active) in experiment [5]. Also, the figures for the AC50 with INS1 and on Cytochrome P450 3A4 were 3.23 µM (active) and 5.01 µM (inconclusive), respectively.
With `O=C(Nc1ccc2c(c1)OCCO2)NC12CC3CC(CC(C3)C1)C2`, the EC50 with H4 is > 120 µM (not active); in experiment [4], 0.516 µM (active); in experiment [6], 5.22 µM (active).
The matching figures for `CSc1nc2nccc(/C=C\c3ccccc3)n2n1`: > 120 µM (not active), > 120 µM (not active) and > 120 µM (not active).
For `O=C1C2CCN(CC2)C1Cc1ccc(OCc2ccccc2)cc1` (stereo not drawn), the EC50 is 24 µM (inconclusive) in [1] and 2.41 µM (active) in experiment [2].
As for `O=[N+]([O-])c1ccccc1N/N=C1\CCc2ccccc21`, the EC50 with H4 was 2.24 µM (active); in experiment [4], 0.268 µM (active).
For the compound `Cc1cc(C)n2nc(Nc3ccccc3)cc2n1`, the EC50 is 15.8 µM (active) in experiment [4] and 6.86 µM (active) in [6].
Take `C[C@@H]1CCCCO[C@H](CN(C)S(=O)(=O)c2ccc(Cl)cc2)[C@H](C)CN([C@@H](C)CO)C(=O)c2cc(NS(=O)(=O)c3ccc(F)cc3)ccc2O1`: the AC50 at Paired box protein Pax-8 is 4.33 µM (active).
In the case of `COc1cc(/C=C/C(=O)OCC(=O)NC(=O)NC(C)(C)C)ccc1O`, the IC50 in [3] was 57.5 µM (active).
`Cc1c(C(=O)Nc2ccccc2)sc2nc(-c3ccccc3)cn12`: the EC50 with H4 is 44.2 µM (active); in experiment [4], 6.59 µM (active); in experiment [6], 4.41 µM (active).
For the compound `N#Cc1c(Cl)nsc1NC(=O)c1ccccc1`, the EC50 in experiment [1] is 22.2 µM (active); in experiment [2], 0.626 µM (active). For the same compound, in the experiment with INS1, the AC50 was 3.29 µM (active).
Regarding `CCc1cc2c(=O)c(-c3nc4ccccc4n3C)c(COCC(=O)O)oc2cc1O`, the EC50 (in the experiment on H4; in [4]; in experiment [6]) was > 120 µM (not active) each time.
Take `COc1cc(/C=C2/C(=N)N3C=C(C)SC3=NC2=O)ccc1O`: the IC50 in [3] is 71.9 µM (active).
For `Cc1ccc(C(=O)Cn2ncsc2=N)cc1`, the EC50 in [4] is 16.8 µM (active); in experiment [6], 13.5 µM (active).
`C=CCOc1ccccc1CN1CCCN(C)CC1`: in [3], the IC50 was 178 µM (active).
In the case of `COc1ccccc1-c1ccc2c(c1)O[C@H](CN(C)Cc1ccc3c(c1)OCO3)[C@H](C)CN([C@@H](C)CO)S2(=O)=O`, on Paired box protein Pax-8, the AC50 is 13.5 µM (active).
Take `CCOc1cccc(-c2cc(-c3nnc(S)n3CC)c3ccccc3n2)c1`: the EC50 is > 160 µM (inactive) in experiment [1] and 4.13 µM (active) in experiment [2].
On to `COC(=O)c1c(-c2cccs2)csc1NC(=O)c1cccnc1`, for which the figures for the EC50 in [1] and in experiment [2] were > 160 µM (inactive) and 2.49 µM (active), respectively.
As to `C=CCNc1ncnc2c1[nH]c1ccc(Cl)cc12`, the EC50 was 43 µM (active) in [4] and 89.5 µM (active) in experiment [6].
As for `C[C@H]1CCCCO[C@@H](CN(C)C(=O)c2ccccc2)[C@@H](C)CN([C@@H](C)CO)C(=O)c2cc(NC(=O)Nc3ccc(C(F)(F)F)cc3)ccc2O1`, the AC50 on Paired box protein Pax-8 was 3.76 µM (active).
Take `COC(=O)C1(Cc2cc(-c3ccccc3)no2)CCN(C(=O)OC(C)(C)C)CC1`: the EC50 in the experiment with H4 is 55.7 µM (active); in experiment [4], 49.6 µM (active); in experiment [6], 9.17 µM (active).
As to `O=C(CNC(=O)c1cn2ccccc2n1)Nc1ccc(F)c(F)c1`, the EC50 in the experiment on H4 was > 120 µM (not active); in [4] it was 45.5 µM (active); in experiment [6], 0.453 µM (active).
For the compound `COc1cc2c(CCNC(C)=O)c[nH]c2cc1O`, the AC50 on Cytochrome P450 2D6 was 39.8 µM (inconclusive); on Cytochrome P450 1A2, 31.6 µM (inconclusive); on Cytochrome P450 3A4 it was 15.8 µM (inconclusive). The IC50 in [3] was 52.3 µM (active).
`Cc1ccc(C2NNC(=O)C2NC(=O)c2ccccc2)cc1` (stereo not drawn): the values for the EC50 (in the experiment with H4; in experiment [4]; in experiment [6]) were 48.6 µM (active), 9.08 µM (active) and 11.3 µM (active), respectively.
In the case of `O=C(NCc1ccc2c(c1)OCO2)Nc1ccc(F)cc1`, the EC50 (on Streptokinase A; in the experiment on Streptococcus; in experiment [5]) was > 150 µM (not active) each time.
Regarding `COCC1CCN(C(=O)CCc2nnc(C3(c4ccc(Cl)cc4)CCC3)o2)C1` (stereo not drawn), the EC50 (on Streptokinase A; with Streptococcus; in [5]) was > 150 µM (not active) each time.
Turning to `CN1C(=O)/C(=C/c2cn(CC(=O)N3CCCCC3)c3ccccc23)NC1=S`, the EC50 in [1] was > 150 µM (inactive); in experiment [2], > 38 µM (not active).
Turning to `O=C(/C=C/c1ccc(S(=O)(=O)NCc2ccco2)cc1)NCc1ccccc1Cl`, the EC50 in the experiment on H4 is 16.4 µM (active); in experiment [4] it was > 120 µM (not active); in experiment [6], > 120 µM (not active).
